Test results reported in PMC5431200, “Identification of Streptococcus cristatus peptides that repress expression of virulence genes in Porphyromonas gingivalis” (Scientific Reports, 2017).

The substances below were run on fimA, mfa1, kgp, rgpA/B, rgpA (assay: Virulence gene expression in P. gingivalis with ArcA peptides, stated for the gene set, qRT-PCR). Conditions: peptide 16 µM (Table 1); at a lower efficiency than peptide4.
Assay type: cell-based, Porphyromonas gingivalis 33277
Experimental: (§1) P. gingivalis were homogenized in Trizol Reagent (Invitrogen, Carlsbad, CA) and RNA was purified using an RNeasy mini spin column (Qiagen, Valencia, CA). RNA samples were digested on-column with RNase-free DNase, and total RNA was tested using an Agilent 2100 Bioanalyzer to ensure the quality of the samples. Amplification reactions consisted of a reverse transcription using a Bio-Rad iScript Reverse Transcription Supermix on a TC-3000 thermal cycler (Techne, Staffordshire, ST15 OSA, UK) and a real-time qRT-PCR analysis using a QuantiTect SYBR Green RT-PCR Kit (Qiagen) on an iCycler MyiQ^TM Real-Time PCR detection system (Bio-Rad Laboratories, Inc, Hercules, CA) according to the manufacturer’s instructions. P. gingivalis 16 S rRNA gene was used as a normalizing gene. […] The expression levels of the investigated genes for the test sample were determined relative to the untreated calibrator sample by using the comparative cycle threshold (ΔC T) method. ΔC T was calculated by subtracting the average C T value of the test sample from the average C T value of the calibrator sample, and the value used to calculate the ratio between the two by assuming 100% amplification efficiency.
(§2) Peptides were resuspended in nuclease/proteinase-free PBS, aliquoted, and stored at −20 °C. Inhibitory activity of peptides were determined as described[16] with slight modification. Peptides were mixed with 5 × 10^5 cells of P. gingivalis, spotted onto a TSB blood agar plate, and cultured for 60 h anaerobically. The expression levels of fimbrial and gingipain mRNA or proteins were measured using qRT-PCR or western blot analyses.

Substance | Inhibitory activity on virulence gene expression (in words)
E389LVRGRGGPRCMSMPF [Peptide P5] | some inhibitory activity
I97RGRETKK [Peptide P1] | some inhibitory activity
V208YNREEDTRIEGGDEL [Peptide P3] | some inhibitory activity

These substances were tested on rgpA/B (assay: rgpA/B expression (catalytic regions of rgpA/B) in P. gingivalis with ArcA peptides, real-time qRT-PCR). Conditions: peptide 16 µM; P. gingivalis 33277 grown TSB; real-time PCR mRNA level relative to absence of peptide = 1 unit; means and SD of three independent experiments.
Assay type: cell-based, Porphyromonas gingivalis 33277
Experimental: (§3) The IC50 for each gene was established using a Microsoft Excel program with add-in for curve fitting.
as §1, §2

Substance | Relative expression level rgpA/B
E389LVRGRGGPRCMSMPF [Peptide P5] | 0.72 ± 0.05
I97RGRETKK [Peptide P1] | 0.89 ± 0.05
V208YNREEDTRIEGGDEL [Peptide P3] | 0.98 ± 0.06

These substances were tested on fimA (assay: fimA expression in P. gingivalis with ArcA peptides, real-time qRT-PCR). Conditions: peptide 16 µM; P. gingivalis 33277 grown TSB; real-time PCR mRNA level relative to absence of peptide = 1 unit; means and SD of three independent experiments.
Assay type: cell-based, Porphyromonas gingivalis 33277
Experimental: as §3, §1, §2

Substance | Relative expression level fimA
E389LVRGRGGPRCMSMPF [Peptide P5] | 0.97 ± 0.05
I97RGRETKK [Peptide P1] | 0.88 ± 0.08
V208YNREEDTRIEGGDEL [Peptide P3] | 0.87 ± 0.10

The substances below were run on pgn0128 (assay: pgn0128 (immunoreactive 53 kDa antigen) expression in P. gingivalis with ArcA peptides, real-time qRT-PCR). Conditions: peptide 16 µM; P. gingivalis 33277 grown TSB; real-time PCR mRNA level relative to absence of peptide = 1 unit; means and SD of three independent experiments.
Assay type: cell-based, Porphyromonas gingivalis 33277
Experimental: as §1, §2

Substance | Relative expression level pgn0128
E389LVRGRGGPRCMSMPF [Peptide P5] | 0.91 ± 0.06
I97RGRETKK [Peptide P1] | 0.96 ± 0.06
V208YNREEDTRIEGGDEL [Peptide P3] | 0.91 ± 0.07

What follows are substances tested on rgpA (assay: not given). Conditions: peptide 16 µM; P. gingivalis 33277 grown TSB; real-time PCR mRNA level relative to absence of peptide = 1 unit; means and SD of three independent experiments.
Experimental: as §3, §1, §2

Substance | Relative expression level rgpA
E389LVRGRGGPRCMSMPF [Peptide P5] | 0.73 ± 0.06
I97RGRETKK [Peptide P1] | 0.86 ± 0.07
V208YNREEDTRIEGGDEL [Peptide P3] | 0.84 ± 0.06

These substances were tested on mfa1 (assay: not given). Conditions: peptide 16 µM; P. gingivalis 33277 grown TSB; real-time PCR mRNA level relative to absence of peptide = 1 unit; means and SD of three independent experiments.
Experimental: as §3, §1, §2

Substance | Relative expression level mfa1
E389LVRGRGGPRCMSMPF [Peptide P5] | 0.83 ± 0.04
I97RGRETKK [Peptide P1] | 0.85 ± 0.05
V208YNREEDTRIEGGDEL [Peptide P3] | 0.82 ± 0.07

What follows are substances tested on kgp (assay: not given). Conditions: peptide 16 µM; P. gingivalis 33277 grown TSB; real-time PCR mRNA level relative to absence of peptide = 1 unit; means and SD of three independent experiments.
Experimental: as §3, §1, §2

Substance | Relative expression level kgp
E389LVRGRGGPRCMSMPF [Peptide P5] | 0.96 ± 0.12
I97RGRETKK [Peptide P1] | 1.06 ± 0.12
V208YNREEDTRIEGGDEL [Peptide P3] | 0.99 ± 0.12
